Data reported in US8414914B2, “Compositions for mucosal delivery of agents” (Virun, Inc., priority 2004, dated 2013).

Test: IV study in dogs: plasma insulin and glucose after IV injection of human insulin
Type: in vivo, Mongrel dogs
Method: Oral bioavailability of insulin composition was determined using an IV study followed by an oral crossover study and the relative areas of under the curve, plasma half life, Cmax, and Tmax was calculated. […] Following data collection, plasma concentration, plasma half-life, peak concentration (Cmax) and time to reach Cmax (tmax) were determined. From the areas under the curve, percent oral bioavailability was determined.

[1] = dog #71, IV 0.01 mg/kg, 120 min
[2] = dog #71, IV 0.01 mg/kg, 180 min
[3] = dog #71, IV 0.01 mg/kg, 240 min
[4] = dog #72, IV 0.01 mg/kg, 120 min
[5] = dog #72, IV 0.01 mg/kg, 180 min
[6] = dog #72, IV 0.01 mg/kg, 240 min

human insulin: human insulin given by IV injection (0.01 mg/kg) as reference in the dog study
Plasma Glucose (dog #71, IV 0.01 mg/kg, 2 min): 89 mg/dL | Plasma Insulin (dog #71, IV 0.01 mg/kg, 2 min): 50.2 ng/mL | Plasma Glucose (dog #71, IV 0.01 mg/kg, 5 min): 82 mg/dL | Plasma Insulin (dog #71, IV 0.01 mg/kg, 5 min): 26.6 ng/mL | Plasma Glucose (dog #71, IV 0.01 mg/kg, 10 min): 57 mg/dL | Plasma Glucose (dog #71, IV 0.01 mg/kg, 15 min): 46 mg/dL | Plasma Insulin (dog #71, IV 0.01 mg/kg, 15 min): 10.1 ng/mL | Plasma Glucose (dog #71, IV 0.01 mg/kg, 20 min): 41 mg/dL | Plasma Glucose (dog #71, IV 0.01 mg/kg, 25 min): 42 mg/dL | Plasma Insulin (dog #71, IV 0.01 mg/kg, 25 min): 5.9 ng/mL | Plasma Glucose (dog #71, IV 0.01 mg/kg, 40 min): 39 mg/dL | Plasma Glucose (dog #71, IV 0.01 mg/kg, 60 min): 48 mg/dL | Plasma Glucose [1]: 69 mg/dL | Plasma Insulin [1]: 0.19 ng/mL | Plasma Glucose [2]: 87 mg/dL | Plasma Insulin [2]: 0.08 ng/mL | Plasma Glucose [3]: 86 mg/dL | Plasma Insulin [3]: 0.08 ng/mL | Plasma Glucose (dog #72, IV 0.01 mg/kg, 2 min): 89 mg/dL | Plasma Insulin (dog #72, IV 0.01 mg/kg, 2 min): 27.3 ng/mL | Plasma Glucose (dog #72, IV 0.01 mg/kg, 5 min): 60 mg/dL | Plasma Insulin (dog #72, IV 0.01 mg/kg, 5 min): 21.4 ng/mL | Plasma Glucose (dog #72, IV 0.01 mg/kg, 10 min): 31 mg/dL | Plasma Glucose (dog #72, IV 0.01 mg/kg, 15 min): 28 mg/dL | Plasma Glucose (dog #72, IV 0.01 mg/kg, 20 min): 35 mg/dL | Plasma Insulin (dog #72, IV 0.01 mg/kg, 20 min): 3.4 ng/mL | Plasma Glucose (dog #72, IV 0.01 mg/kg, 25 min): 24 mg/dL | Plasma Glucose (dog #72, IV 0.01 mg/kg, 40 min): 21 mg/dL | Plasma Insulin (dog #72, IV 0.01 mg/kg, 40 min): 0.7 ng/mL | Plasma Glucose (dog #72, IV 0.01 mg/kg, 60 min): 33 mg/dL | Plasma Insulin (dog #72, IV 0.01 mg/kg, 60 min): 0.2 ng/mL | Plasma Glucose [4]: 68 mg/dL | Plasma Insulin [4]: 0.04 ng/mL | Plasma Glucose [5]: 102 mg/dL | Plasma Insulin [5]: 0 ng/mL | Plasma Glucose [6]: 99 mg/dL | Plasma Insulin [6]: 0.04 ng/mL
